Values joined by “and” are separate entries in the source; they are usually repeats but may differ in a detail not shown here. Equal values may be shown once.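 Assay format: 96-well plates, 48-hour exposure. Abbreviation: GI50, concentration required for 50% inhibition of growth. Definition used: TGI = concentration required for complete inhibition of growth.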

Test systems include HT29 colon; OVCAR-4 ovarian; SK-MEL-2 melanoma; SF-539 CNS; CAKI-1 renal; SF-268 CNS; A498 renal; SK-MEL-28 melanoma; SK-MEL-5 melanoma; A549 NSCLC.
Common to all, as to experiment: NCI anticancer screen, dose series, 48 h

For `COc1ccc(F)c(F)c1C(=O)c1cnc(NC2CCN(S(C)(=O)=O)CC2)nc1N`, the GI50 in the assay with HT29 colon was 0.42 µM and 0.341 µM; in the assay on OVCAR-4 ovarian, 1.44 µM and 1.41 µM; in the assay on SK-MEL-2 melanoma it was 1.07 µM and 1.15 µM; with SF-539 CNS, 0.536 µM and 0.406 µM; in the assay on CAKI-1 renal it was 1.05 µM and 0.232 µM; in the assay on SF-268 CNS, 1.14 µM and 0.527 µM. Further, the GI50 in the assay on A498 renal was 0.445 µM; with SK-MEL-28 melanoma, 1.06 µM and 0.412 µM; with SK-MEL-5 melanoma, 0.369 µM and 0.399 µM; in the assay on A549 NSCLC, 0.422 µM and 0.397 µM. Moreover, the TGI in the assay on HT29 colon is 7.68 µM and > 9.06 µM; in the assay on OVCAR-4 ovarian, greater than 27.9 µM; in the assay on SK-MEL-2 melanoma it was 2.96 µM and 3.48 µM; in the assay with SF-539 CNS, 3.13 µM and 3.07 µM; in the assay with CAKI-1 renal it was greater than 100 µM; in the assay with SF-268 CNS it was 7.16 µM and > 7.59 µM. The TGI is 2.08 µM with A498 renal; > 27.2 µM and 4.78 µM with SK-MEL-28 melanoma; 4.64 µM and > 7.12 µM in the assay on SK-MEL-5 melanoma; greater than 26.5 µM in the assay on A549 NSCLC.
In the case of `O=[N+]([O-])c1ccc(-c2cc3c(Nc4ccc(Cl)c(C(F)(F)F)c4)ncnc3s2)cc1`, the GI50 with HT29 colon was 1.49 µM; in the assay on OVCAR-4 ovarian it was 1.2 µM; in the assay with SK-MEL-2 melanoma, 2.4 µM; in the assay with SF-539 CNS, 1.88 µM; in the assay with CAKI-1 renal, 2.22 µM; with SF-268 CNS, 1.34 µM. Further, the GI50 is 0.706 µM in the assay with A498 renal, 2.24 µM in the assay with SK-MEL-28 melanoma, 1.13 µM in the assay on SK-MEL-5 melanoma and 1.38 µM in the assay with A549 NSCLC. Further, the TGI in the assay with HT29 colon is greater than 100 µM; in the assay with OVCAR-4 ovarian, greater than 100 µM; in the assay on SK-MEL-2 melanoma, 6.42 µM; in the assay on SF-539 CNS, 9.4 µM; in the assay on CAKI-1 renal, 8.32 µM; with SF-268 CNS, greater than 100 µM. For the same molecule, the TGI is 3.42 µM in the assay with A498 renal, greater than 100 µM in the assay with SK-MEL-28 melanoma, 2.58 µM with SK-MEL-5 melanoma and greater than 100 µM with A549 NSCLC.
On to `[2H]c1nc(=Nc2cc(NC(=O)C=C)c(N(C)CCN(C)C)cc2OC)[nH]c(-c2cn(C([2H])([2H])[2H])c3ccccc23)c1[2H]`, for which the GI50 in the assay on HT29 colon is 1.69 µM; with OVCAR-4 ovarian, 3.27 µM; in the assay on SK-MEL-2 melanoma it was 1.73 µM; with SF-539 CNS, 1.47 µM; with CAKI-1 renal, 0.503 µM; with SF-268 CNS, 1.98 µM. Besides, the GI50 with A498 renal was 1.21 µM; in the assay on SK-MEL-28 melanoma, 1.78 µM; with SK-MEL-5 melanoma it was 1.64 µM; in the assay with A549 NSCLC, 1.14 µM. The TGI with HT29 colon was 3.26 µM; in the assay with OVCAR-4 ovarian it was 17.3 µM; with SK-MEL-2 melanoma, 3.65 µM; in the assay on SF-539 CNS it was 2.96 µM; in the assay on CAKI-1 renal, 1.89 µM; in the assay on SF-268 CNS it was 13 µM. For the same molecule, the TGI in the assay on A498 renal was 4.56 µM; with SK-MEL-28 melanoma, 3.33 µM; in the assay on SK-MEL-5 melanoma, 3 µM; in the assay with A549 NSCLC, 7.64 µM.
For the molecule `O=C(c1cccs1)C1NO[N+]([O-])=C1c1cccs1` (stereo not given), the GI50 was 1.94 µM in the assay on HT29 colon; 2.13 µM in the assay on OVCAR-4 ovarian; 11.2 µM with SK-MEL-2 melanoma; 1.86 µM with SF-539 CNS; 1.61 µM in the assay with CAKI-1 renal; 2.35 µM with SF-268 CNS. In addition, the GI50 is 1.95 µM with A498 renal, 2.52 µM in the assay with SK-MEL-28 melanoma, 16.2 µM in the assay with SK-MEL-5 melanoma and 9.89 µM with A549 NSCLC. For the same molecule, the TGI in the assay with HT29 colon was 3.65 µM; with OVCAR-4 ovarian it was 4.97 µM; with SK-MEL-2 melanoma, 24.5 µM; in the assay on SF-539 CNS it was 3.39 µM; in the assay on CAKI-1 renal, 3.41 µM; with SF-268 CNS it was 5.98 µM. Also, the TGI in the assay on A498 renal was 6.3 µM; in the assay with SK-MEL-28 melanoma it was 6.8 µM; with SK-MEL-5 melanoma it was 31 µM; with A549 NSCLC, 34.4 µM.
On to `CCn1c(-c2nonc2N)nc2ccncc21`, for which the GI50 with HT29 colon, with OVCAR-4 ovarian, with SK-MEL-2 melanoma, with SF-539 CNS, with CAKI-1 renal and with SF-268 CNS was greater than 25 µM in each case. In addition, the GI50 with A498 renal, in the assay with SK-MEL-28 melanoma, with SK-MEL-5 melanoma and with A549 NSCLC was greater than 25 µM throughout. The TGI in the assay on HT29 colon, in the assay with OVCAR-4 ovarian, in the assay on SK-MEL-2 melanoma, in the assay on SF-539 CNS, with CAKI-1 renal and in the assay on SF-268 CNS was greater than 25 µM in each case. Besides, the TGI in the assay on A498 renal, with SK-MEL-28 melanoma, in the assay on SK-MEL-5 melanoma and in the assay on A549 NSCLC was greater than 25 µM in each case.
As to `COc1cccc(COc2cc(-n3cnc4ccccc43)sc2C(N)=O)c1`, the GI50 in the assay with HT29 colon was 2.03 µM; in the assay on OVCAR-4 ovarian, greater than 25 µM; in the assay with SK-MEL-2 melanoma it was greater than 15.4 µM; with SF-539 CNS it was 16 µM; in the assay on CAKI-1 renal, greater than 25 µM; in the assay with SF-268 CNS it was 5.88 µM. Also, the GI50 is 0.92 µM in the assay on A498 renal, greater than 24 µM with SK-MEL-28 melanoma, greater than 19.4 µM in the assay on SK-MEL-5 melanoma and greater than 21.7 µM in the assay with A549 NSCLC. Further, the TGI with HT29 colon, in the assay on OVCAR-4 ovarian, with SK-MEL-2 melanoma, in the assay on SF-539 CNS, in the assay on CAKI-1 renal and with SF-268 CNS was greater than 25 µM in each case. Besides, the TGI in the assay on A498 renal, in the assay on SK-MEL-28 melanoma, in the assay on SK-MEL-5 melanoma and in the assay on A549 NSCLC was greater than 25 µM in each case.
Regarding `Cc1ccc(-n2nc(C(C)(C)C)cc2NC(=O)NCc2cc(F)ccc2Oc2ccc3c(cnn3CCO)c2)cc1`, the GI50 with HT29 colon was 0.718 µM and 2.44 µM; in the assay with OVCAR-4 ovarian, > 10 µM and 4.1 µM; in the assay on SK-MEL-2 melanoma it was 2.98 µM and 4.42 µM; in the assay on SF-539 CNS, > 10 µM and 6.83 µM; in the assay on CAKI-1 renal, 9.61 µM and 6.5 µM; with SF-268 CNS, > 10 µM and 4.61 µM. For the same molecule, the GI50 is 1.02 µM and 1.48 µM in the assay on A498 renal; 0.511 µM and 0.989 µM with SK-MEL-28 melanoma; 2.39 µM and 3.15 µM in the assay on SK-MEL-5 melanoma; > 10 µM and 11.7 µM in the assay on A549 NSCLC. Also, the TGI is > 10 µM and 26.6 µM in the assay on HT29 colon; greater than 100 µM in the assay with OVCAR-4 ovarian; > 10 µM and 13 µM in the assay with SK-MEL-2 melanoma; greater than 93.1 µM in the assay with SF-539 CNS; greater than 100 µM in the assay on CAKI-1 renal; greater than 100 µM in the assay on SF-268 CNS. Moreover, the TGI in the assay on A498 renal was 9.34 µM and 6.97 µM; in the assay on SK-MEL-28 melanoma, greater than 20.9 µM; with SK-MEL-5 melanoma, > 10 µM and 13.2 µM; with A549 NSCLC, greater than 100 µM.
As to `CC1(C)CC(=O)C(CC2C(=O)c3ccccc3C2=O)C(=O)C1`, the TGI in the assay on HT29 colon, with OVCAR-4 ovarian, with SK-MEL-2 melanoma, in the assay on SF-539 CNS, with CAKI-1 renal and in the assay on SF-268 CNS was greater than 100 µM throughout. The TGI in the assay on A498 renal, in the assay on SK-MEL-28 melanoma, in the assay with SK-MEL-5 melanoma and with A549 NSCLC was greater than 100 µM throughout.

Source of the values: PubChem BioAssay (NCI).
